Source: patent US8846620B2, “Resorption enhancers as additives to improve the oral formulation of non-anticoagulant sulfated polysaccharides” (Baxter International Inc., priority 2011, dated 2014)

Tests used:
CaCo-2 cell model = CaCo-2 cell model bioavailability / resorption screening of NASPs with permeation enhancers; assay type: in vitro ADME, human; settings: for Average Percent Resorption at 8 hours: Table 5; for basolateral concentrations in the presence of a gastrointestinal epithelial barrier permeation enhancer: compared with absence of enhancer, figures
Protocol: (§1) The bioavailability of NASPs in combination with gastrointestinal epithelial barrier permeation enhancers of interest were studied using the CaCo-2 cell model screening. This method utilizes a human colon carcinoma cell line that expresses a wide range of transporter proteins on its cell membranes. Cell layers are grown on a membrane surface that separates two compartments (24-well plate). An example of the experimental setup for these experiments is illustrated in FIG. 1. Selected NASP and gastrointestinal epithelial barrier permeation enhancer samples were dissolved in RPMI cell medium at a concentration of 1 mg/mL and applied onto the cells in the apical compartment. Cells were incubated at 37° C. in 5% CO2. Medium samples were removed from the basolateral and apical compartment at different time points. The condition of the cell layer was monitored by measurement of the transepithelial electrical resistance (TEER). Samples were analyzed by thrombin generation assay (CAT). NASP concentration was calculated based on activity from CAT assay. Experimental details of thrombin generation assays and other blood coagulation assays are described in U.S. patent application Ser. No. 11/140,504, filed on May 27, 2005, now U.S. Pat. No. 7,767,654, and U.S. patent application Ser. No. 13/006,396, filed on Jan. 13, 2011, the disclosures of which is herein incorporated by reference.
All NASP and gastrointestinal epithelial barrier permeation enhancer samples were diluted in such a way that the sample concentration was in the range of increasing procoagulant activity. Based on the initial load concentration values, apical and basolateral concentrations were determined at 2 hour increments (e.g., 2 hours, 4 hours, 6 hours, 8 hours, including 24 hours). Based on the determined basolateral concentrations, the percent resorption was determined for each combination of compounds (i.e., NASP and gastrointestinal epithelial barrier permeation enhancers).
FIGS. 4-8 illustrate resorption of some natural NASPs of interest in Caco-2 cell models as determined by TGA and liquid chromatography/mass spectrometry in combination with different gastrointestinal epithelial barrier permeation enhancers. FIGS. 9 and 10 illustrate resorption of some synthetic NASPs of interest in Caco-2 cell models as determined by TGA and liquid chromatography/mass spectrometry in combination with different gastrointestinal epithelial barrier permeation enhancers.

CaCo-2 cell layer = assay: Condition of the cell layer by transepithelial electrical resistance (TEER) in CaCo-2 screening; assay type: cell-based, human
Protocol: as §1, with “reference. […]” for “reference.”

[1] = Bromelain/Chitosan 0.5 mg/mL: 3%
[2] = in the presence of bromelain at 8 hours
[3] = in the presence of deoxycholate at 8 hours

Sulfated 6-Carboxyicodextrin [Sulfated 6-Carboxyicodextrin 24 kD]
Average Percent Resorption at 8 hours (CaCo-2 cell model; Bromelain 0.5 mg/mL): 10.0%
Average Percent Resorption at 8 hours (CaCo-2 cell model; [1]): 36.8%
Average Percent Resorption at 8 hours (CaCo-2 cell model; Chitosan 3%): 2.6%
Average Percent Resorption at 8 hours (CaCo-2 cell model; Deoxycholate 0.06%): 4.9%
Average Percent Resorption at 8 hours (CaCo-2 cell model; Deoxycholate 0.08%): 14.7%
Average Percent Resorption at 8 hours (CaCo-2 cell model; No enhancer): 1.6%

Sulfated Maltopentose
Average Percent Resorption at 8 hours (CaCo-2 cell model; Bromelain 0.5 mg/mL): 48.6%
Average Percent Resorption at 8 hours (CaCo-2 cell model; [1]): 158.8%
Average Percent Resorption at 8 hours (CaCo-2 cell model; Chitosan 3%): 35.7%
Average Percent Resorption at 8 hours (CaCo-2 cell model; Deoxycholate 0.06%): 67.4%
Average Percent Resorption at 8 hours (CaCo-2 cell model; Deoxycholate 0.08%): 113.2%
Average Percent Resorption at 8 hours (CaCo-2 cell model; No enhancer): 0%
Average Percent Resorption at 8 hours (CaCo-2 cell model; Sodium Caprate 12 mM): 13.1%
basolateral concentrations in the presence of a gastrointestinal epithelial barrier permeation enhancer (CaCo-2 cell model): increased
resorption in Caco-2 cell models (CaCo-2 cell model; [2]): increased substantially
resorption in Caco-2 cell models (CaCo-2 cell model; in the presence of chitosan): strong increased resorption
resorption in Caco-2 cell models (CaCo-2 cell model; [3]): increased substantially
resorption in Caco-2 cell models (CaCo-2 cell model; in the presence of sodium caprate): strong increased resorption
transepithelial electrical resistance after removal of the permeation enhancer and the NASP (CaCo-2 cell layer; after removal of enhancer and maltopentaose): increased

Sulfated 6-Carboxyicodextrin [Sulfated 6-Carboxyicodextrin 14 kD]
Average Percent Resorption at 8 hours (CaCo-2 cell model; Bromelain 0.5 mg/mL): 17.7%
Average Percent Resorption at 8 hours (CaCo-2 cell model; [1]): 44.5%
Average Percent Resorption at 8 hours (CaCo-2 cell model; Chitosan 3%): 5.4%
Average Percent Resorption at 8 hours (CaCo-2 cell model; Deoxycholate 0.08%): 27.2%
Average Percent Resorption at 8 hours (CaCo-2 cell model; No enhancer): 3.8%

Sulfated β-cyclodextrin
Average Percent Resorption at 8 hours (CaCo-2 cell model; Bromelain 0.5 mg/mL): 24.7%
Average Percent Resorption at 8 hours (CaCo-2 cell model; [1]): 59.8%
Average Percent Resorption at 8 hours (CaCo-2 cell model; Chitosan 3%): 15.6%
Average Percent Resorption at 8 hours (CaCo-2 cell model; Deoxycholate 0.06%): 20.6%
Average Percent Resorption at 8 hours (CaCo-2 cell model; Deoxycholate 0.08%): 36.1%
Average Percent Resorption at 8 hours (CaCo-2 cell model; No enhancer): 0%
Average Percent Resorption at 8 hours (CaCo-2 cell model; Sodium Caprate 12 mM): 19.3%
basolateral concentrations in the presence of a gastrointestinal epithelial barrier permeation enhancer (CaCo-2 cell model): increased
resorption in Caco-2 cell models (CaCo-2 cell model; [2]): increased substantially
resorption in Caco-2 cell models (CaCo-2 cell model; [3]): increased substantially
resorption in Caco-2 cell models (CaCo-2 cell model; in the presence of sodium caprate at 8 hours): increased substantially

bromelain
transepithelial electrical resistance after treatment with the permeation enhancer alone (CaCo-2 cell layer; enhancer alone, no NASP): recovery of the transepithelial electrical resistance
